{"source": "patent US11419856B2", "about": "“Pharmaceutical combinations for use in the treatment of neoplastic diseases” (Basilea Pharmaceutica International AG, priority 2017, dated 2022)", "key": {"[1]": {"system": "MDA-MB-231 xenograft (human triple negative breast cancer)", "assay": "Antitumor efficacy and induction of cures in the MDA-MB-231 xenograft model (Examples 1A, 1B)", "type": "in vivo, mouse", "description": "(§1) Female athymic nude mice (Crl:NU(NCr)-Foxnlnu, Charles River) were used when ten weeks old with a body weight (BW) range of 19.7-27.1 g on Day 1 of the study. The animals were fed ad libitum water (reverse osmosis, 1 ppm Cl) and NIH 31 Modified and Irradiated Lab Diet® consisting of 18.0% crude protein, 5.0% crude fat, and 5.0% crude fiber. The mice were housed on irradiated Enrich-o'Cobs™ Laboratory Animal Bedding in static micro-isolators on a 12-hour light cycle at 20-22° C. (68-72° F.) and 40-60% humidity. Charles River Discovery Services North Carolina (CR Discovery Services) specifically complies with the recommendations of the Guide for Care and Use of Laboratory Animals with respect to restraint, husbandry, surgical procedures, feed and fluid regulation, and veterinary care. The animal care and use program at CR Discovery Services is accredited by the Association for Assessment and Accreditation of Laboratory Animal Care International (AAALAC), which assures compliance with accepted standards for the care and use of laboratory animals. These considerations were taken into account in the way that the dosage regimes were designed and implemented.\nThe human MDA-MB-231 breast adenocarcinoma cells were grown to mid-log phase in RPMI-1640 medium containing 10% fetal bovine serum, 2 mM glutamine, 100 units/mL sodium penicillin G, 25 μg/mL gentamicin, and 100 μg/mL streptomycin sulfate. The tumor cells were cultured in tissue culture flasks in a humidified incubator at 37° C./5% CO2 and 95% air, harvested during exponential growth and resuspended in cold Phosphate-buffered saline (PBS). Each test animal received a subcutaneous (s.c.) injection of 5×10^6 MDA-MB-231 cells (0.1 mL cell suspension) into the right flank, and tumor growth was monitored as the average tumor size approached the target range of 100-150 mm^3. Tumors were measured (mm) in two dimensions using calipers, and volume was calculated using the formula: Tumor Volume (TV) (mm^3)=(width^2×length)/2. Eighteen days after tumor cell implantation, on Day 1 of the study, mice with individual tumor volumes ranging from 75 to 172 mm^3 were randomized into groups of 8-10 animals, with group mean tumor volumes of 114-124 mm^3.\nBAL0101553 was dissolved in 0.9% NaCl in water buffered to pH 5 with 1% sodium acetate to yield 2, 2.5 and 3 mg/mL dosing solutions, providing 20, 25 and 30 mg/kg dosages, respectively, in 10 mL/kg dosing volumes. Eribulin (purchased from Eisai Co., Lot. No. 6217, 6288, 6289 and 6309) at 0.5 mg/mL concentration was diluted in saline to yield a 0.01, 0.025 and 0.05 mg/mL dosing solutions, providing 0.1, 0.25 and 0.5 mg/kg dosages, respectively, in a dosing volume of 10 mL/kg.\nGroups of mice (n=8-10) bearing MDA-MB-231 tumors were dosed as outlined in the Tables 1 and 3. All doses were adjusted to 10 mL/kg. The control groups received oral doses of vehicle (pH 5 buffered 0.9% NaCl solution). Eribulin was administered i.v. and BAL101553 orally. When eribulin and BAL0101553 were dosed in combination, Eribulin was administered to all groups first followed by BAL0101553 dosing within 30 minutes of the first regimen.\nBody weights were recorded daily for days 1-5 and then twice weekly until the end of the study and tumor volumes were recorded twice weekly until the end of the experiment. These parameters were analyzed and graphically represented by using GraphPad-Prism™ 5 for Windows according to standard procedure. […] Tumor free animals at the end of the study time were assessed for residual MDA-MB-231 tumor cells by pathological methods. Skin and subcutaneous tissue including the tumor cell inoculation site from the flank region were resected, preserved in formalin and embedded in paraffin."}, "[2]": {"assay": "Tolerability in the MDA-MB-231 xenograft model (body weight, mortalities)", "details": "for Final body-weight / Body-weight change: mean ± SD", "description": "as §1, with “The” for “Female athymic nude mice (Crl:NU(NCr)-Foxnlnu, Charles River) were used when ten weeks old with a body weight (BW) range of 19.7-27.1 g on Day 1 of the study. The animals were fed ad libitum water (reverse osmosis, 1 ppm Cl) and NIH 31 Modified and Irradiated Lab Diet® consisting of 18.0% crude protein, 5.0% crude fat, and 5.0% crude fiber. The”\nAll doses were adjusted to 10 mL/kg. The control groups received oral doses of vehicle (pH 5 buffered 0.9% NaCl solution). Eribulin was administered i.v. and BAL101553 orally. When eribulin and BAL0101553 were dosed in combination, Eribulin was administered to all groups first followed by BAL0101553 dosing within 30 minutes of the first regimen.\nBody weights were recorded daily for days 1-5 and then twice weekly until the end of the study and tumor volumes were recorded twice weekly until the end of the experiment. These parameters were analyzed and graphically represented by using GraphPad-Prism™ 5 for Windows according to standard procedure. […] Skin and subcutaneous tissue including the tumor cell inoculation site from the flank region were resected, preserved in formalin and embedded in paraffin. Sections of approximately 5 μm were mounted on glass slides and stained with hematoxylin/eosin and were evaluated by a trained pathologist, to identify residual tumor cells at the site of injection, and were being reported as positive for the existence of residual tumor cells or as negative for a complete lack of any evidence of residual tumor cells."}, "[3]": {"details": "Day 26, Eribulin i.v. 0.1 mg/kg q2d D1-D21, 0.1 mg/kg q2d D25-D43"}, "[4]": {"details": "Day 26, Eribulin i.v. 0.25 mg/kg q2d D1-D21, 0.25 mg/kg q2d D25-D43"}, "[5]": {"details": "Day 26, Eribulin i.v. 0.5 mg/kg q2d D1-D21, 0.5 mg/kg q2d D25-D43"}, "[6]": {"details": "Day 100 (endpoint), Eribulin i.v. 0.1 mg/kg q2d D1-D21, 0.1 mg/kg q2d D25-D43"}, "[7]": {"details": "Day 100 (endpoint), Eribulin i.v. 0.25 mg/kg q2d D1-D21, 0.25 mg/kg q2d D25-D43"}, "[8]": {"details": "Day 100 (endpoint), Eribulin i.v. 0.5 mg/kg q2d D1-D21, 0.5 mg/kg q2d D25-D43"}, "[9]": {"details": "E1A, Day 25, i.v. 0-1 mg/kg q2d D1-D9, 0.1 mg/kg q2d D12-D34"}, "[10]": {"details": "E1A, Day 25, i.v. 0.5 mg/kg q2d D1-D9, 0.5 mg/kg q2d D12-D34"}, "[11]": {"details": "E1A, Day 85 (endpoint), i.v. 0-1 mg/kg q2d D1-D9, 0.1 mg/kg q2d D12-D34"}, "[12]": {"details": "E1A, Day 85 (endpoint), i.v. 0.5 mg/kg q2d D1-D9, 0.5 mg/kg q2d D12-D34"}, "[13]": {"details": "E1A, Day 25, i.v. 0.1 mg/kg q2d D1-D9, 0.1 mg/kg q2d D12-D34"}, "[14]": {"details": "E1B, Day 26, i.v. 0.1 mg/kg q2d D1-D21, 0.1 mg/kg q2d D25-D43"}, "[15]": {"details": "E1B, Day 26, i.v. 0.25 mg/kg q2d D1-D21, 0.25 mg/kg q2d D25-D43"}, "[16]": {"details": "E1B, Day 26, i.v. 0.5 mg/kg q2d D1-D21, 0.5 mg/kg q2d D25-D43"}}}
{"molecule": "C=C1C[C@@H]2CC[C@@]34C[C@H]5O[C@H]6[C@@H](O3)[C@H]3O[C@H](CC[C@@H]3O[C@H]6[C@H]5O4)CC(=O)C[C@@H]3[C@@H](OC)[C@@H](C[C@H](O)CN)O[C@H]3C[C@H]3O[C@@H](CC[C@@H]1O2)C[C@@H](C)C3=C.CS(=O)(=O)O", "note": "[Eribulin, (2R, 3R, 3aS, 7R, 8aS, 9S, 10aR, 11S, 12R, 13aR, 13bS, 15S, 18S, 21S, 24S, 26R, 28R, 29aS)-2-[(2S)-3-Amino-2-hydroxypropyl]-3-methoxy-26-methyl-20,27-dimethylidenehexacosahydro-11,15:18,21:24,28-triepoxy-7,9-ethano-12,15-methano-9H,15H-furo[3,2-i]furo[2′,3′:5,6]pyrano[4,3-b][1,4]dioxacyclopentacosin-5(4H)-one methanesulfonate (salt)]", "values": [{"measurement": "# of regressed tumors (total)", "setting": "[1]; [3]", "value": "2 (10)"}, {"measurement": "T/C", "setting": "[1]; [3]", "value": 0.12}, {"measurement": "# of regressed tumors (total)", "setting": "[1]; [4]", "value": "8 (10)"}, {"measurement": "T/C", "setting": "[1]; [4]", "value": "−0.05"}, {"measurement": "# of regressed tumors (total)", "setting": "[1]; [5]", "value": "10 (10)"}, {"measurement": "T/C", "setting": "[1]; [5]", "value": "−0.09"}, {"measurement": "# of confirmed cures (total)", "setting": "[1]; [6]", "value": "0 (10)"}, {"measurement": "# of tumors with TV ≤ 4 mm^3 (total)", "setting": "[1]; [6]", "value": "0 (10)"}, {"measurement": "% cures", "setting": "[1]; [6]", "value": 0, "unit": "%"}, {"measurement": "# of confirmed cures (total)", "setting": "[1]; [7]", "value": "1 (9)"}, {"measurement": "# of tumors with TV ≤ 4 mm^3 (total)", "setting": "[1]; [7]", "value": "1 (10)"}, {"measurement": "% cures", "setting": "[1]; [7]", "value": 11, "unit": "%"}, {"measurement": "# of confirmed cures (total)", "setting": "[1]; [8]", "value": "6 (10)"}, {"measurement": "# of tumors with TV ≤ 4 mm^3 (total)", "setting": "[1]; [8]", "value": "2 (10)"}, {"measurement": "% cures", "setting": "[1]; [8]", "value": 60, "unit": "%"}, {"measurement": "# of regressed tumors (total)", "setting": "[1]; [9]", "value": "1 (8)"}, {"measurement": "T/C", "setting": "[1]; [9]", "value": 0.13}, {"measurement": "# of regressed tumors (total)", "setting": "[1]; [10]", "value": "8 (8)"}, {"measurement": "T/C", "setting": "[1]; [10]", "value": "−0.09"}, {"measurement": "# of confirmed cures (total)", "setting": "[1]; [11]", "value": "0 (8)"}, {"measurement": "# of tumors with TV ≤ 4 mm^3 (total)", "setting": "[1]; [11]", "value": "0 (8)"}, {"measurement": "% cures", "setting": "[1]; [11]", "value": 0, "unit": "%"}, {"measurement": "# of confirmed cures (total)", "setting": "[1]; [12]", "value": "1 (8)"}, {"measurement": "# of tumors with TV ≤ 4 mm^3 (total)", "setting": "[1]; [12]", "value": "3 (8)"}, {"measurement": "% cures", "setting": "[1]; [12]", "value": 12.5, "unit": "%"}, {"measurement": "T/C (TC-BW, body weight)", "setting": "[2]; [13]", "value": 1.00}, {"measurement": "T/C (TC-BW, body weight)", "setting": "[2]; [10]", "value": 0.96}, {"measurement": "Final body-weight", "setting": "[2]; [13]", "value": "25.8 ± 3.0", "unit": "g"}, {"measurement": "Final body-weight", "setting": "[2]; [10]", "value": "24.4 ± 1.9", "unit": "g"}, {"measurement": "Body-weight change", "setting": "[2]; E1A, day-0 until day-25, i.v. 0.1 mg/kg q2d D1-D9, 0.1 mg/kg q2d D12-D34", "value": "2.1 ± 1.0", "unit": "g"}, {"measurement": "Mortalities", "setting": "[2]; E1A, i.v. 0.1 mg/kg q2d D1-D9, 0.1 mg/kg q2d D12-D34", "value": "0/8"}, {"measurement": "Mortalities", "setting": "[2]; E1A, i.v. 0.5 mg/kg q2d D1-D9, 0.5 mg/kg q2d D12-D34", "value": "0/8"}, {"measurement": "T/C (TC-BW, body weight)", "setting": "[2]; [14]", "value": 1.09}, {"measurement": "T/C (TC-BW, body weight)", "setting": "[2]; [15]", "value": 1.02}, {"measurement": "T/C (TC-BW, body weight)", "setting": "[2]; [16]", "value": 1.03}, {"measurement": "Final body-weight", "setting": "[2]; [14]", "value": "27.9 ± 2.7", "unit": "g"}, {"measurement": "Final body-weight", "setting": "[2]; [15]", "value": "26.6 ± 1.7", "unit": "g"}, {"measurement": "Final body-weight", "setting": "[2]; [16]", "value": "25.5 ± 1.5", "unit": "g"}, {"measurement": "Body-weight change", "setting": "[2]; E1B, day-0 until day-26, i.v. 0.1 mg/kg q2d D1-D21, 0.1 mg/kg q2d D25-D43", "value": "3.9 ± 1.1", "unit": "g"}, {"measurement": "Body-weight change", "setting": "[2]; E1B, day-0 until day-26, i.v. 0.25 mg/kg q2d D1-D21, 0.25 mg/kg q2d D25-D43", "value": "2.3 ± 1.0", "unit": "g"}, {"measurement": "Body-weight change", "setting": "[2]; E1B, day-0 until day-26, i.v. 0.5 mg/kg q2d D1-D21, 0.5 mg/kg q2d D25-D43", "value": "2.3 ± 0.9", "unit": "g"}, {"measurement": "Mortalities", "setting": "[2]; E1B, i.v. 0.1 mg/kg q2d D1-D21, 0.1 mg/kg q2d D25-D43", "value": "0/10"}, {"measurement": "Mortalities", "setting": "[2]; E1B, i.v. 0.25 mg/kg q2d D1-D21, 0.25 mg/kg q2d D25-D43, a non-treatment related death footnoted", "value": "0/10^+"}, {"measurement": "Mortalities", "setting": "[2]; E1B, i.v. 0.5 mg/kg q2d D1-D21, 0.5 mg/kg q2d D25-D43", "value": "0/10"}]}
